Data as given in patent US20240158446A1, “CYCLIC COMPOUND HAVING SELECTIVE INHIBITORY ACTION ON KRAS OVER HRAS AND NRAS” (CHUGAI SEIYAKU KABUSHIKI KAISHA, priority 2021, published 2024).
Like-named read-outs stand apart in the source and are kept apart here. *1 amine or outer side, *2 acyl side, *3 side chain or, on linkers, in order; H or OH if unused. Where a SMILES comes first, the peptide text is derived from it. Bridges are numbered along the chain shown (N, C = ends). [ ]: non-standard residue; d: D form. The star is where a group is joined. hPhe(3-Cl-4-CF3) = N[C@@H](CCc1ccc(C(F)(F)F)c(Cl)c1)C(=O)O; NPrPhe(4-CF3) = CCCN[C@@H](Cc1ccc(C(F)(F)F)cc1)C(=O)O; X16 = CCCN([C@@H](Cc1ccc(OC)cc1)C(=O)[*:2])[*:1]; Piperazinyl(4-(3-oxetanyl)) = C1OCC1N1CCN(*)CC1; NMeGly(cPent) = CN[C@H](C(=O)O)C1CCCC1; NMeD = CN[C@@H](CC(=O)O)C(=O)O; NMeL = CN[C@@H](CC(C)C)C(=O)O; Morpholide = C1CN(*)CCO1; NMeA = CN[C@@H](C)C(=O)O; Ac5c = NC1(C(=O)O)CCCC1; Aze = O=C(O)[C@@H]1CCN1; Sar = CNCC(=O)O

Tests used:
[1] = biological target: GDP-bound NRAS wild-type protein (Homo sapiens, UniProt P01111); assay: Binding to NRAS by surface plasmon resonance (SPR), Single Cycle Kinetics; conditions: for NRAS/KRAS (ratio of KD value for NRAS to KD value for KRAS) / NRAS/KRAS (ratio of KD value with respect to NRAS to KD value with respect to KRAS): SPR, GDP-bound NRAS wild-type protein vs GDP-bound KRAS wild-type protein
[2] = biological target: GDP-bound HRAS wild-type protein (Homo sapiens, UniProt P01112); assay: Binding to HRAS by surface plasmon resonance (SPR), Single Cycle Kinetics; conditions: for HRAS/KRAS (ratio of KD value for HRAS to KD value for KRAS) / HRAS/KRAS (ratio of KD value with respect to HRAS to KD value with respect to KRAS): SPR, GDP-bound HRAS wild-type protein vs GDP-bound KRAS wild-type protein
[3] = biological target: GDP-bound KRAS wild-type protein (Homo sapiens, UniProt P01116); assay: Binding to KRAS by surface plasmon resonance (SPR), Single Cycle Kinetics; conditions: GDP-bound KRAS wild-type protein, read-out: KRAS KD
[4] = SPR Single Cycle Kinetics, 1:1 binding model

Chain of GDP-bound KRAS wild-type protein (P01116 whole entry): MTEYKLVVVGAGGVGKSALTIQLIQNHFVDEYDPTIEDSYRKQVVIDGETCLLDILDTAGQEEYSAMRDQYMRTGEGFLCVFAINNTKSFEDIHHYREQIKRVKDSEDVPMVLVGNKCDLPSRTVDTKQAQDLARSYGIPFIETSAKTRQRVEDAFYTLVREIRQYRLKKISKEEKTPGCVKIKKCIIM
Chain of GDP-bound NRAS wild-type protein (P01111 whole entry): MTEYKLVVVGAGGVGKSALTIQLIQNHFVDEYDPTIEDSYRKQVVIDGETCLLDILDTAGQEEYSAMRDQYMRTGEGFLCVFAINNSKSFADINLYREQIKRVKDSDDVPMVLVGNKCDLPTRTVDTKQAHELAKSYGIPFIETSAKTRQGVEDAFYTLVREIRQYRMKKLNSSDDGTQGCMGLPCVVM
Chain of GDP-bound HRAS wild-type protein (P01112 whole entry): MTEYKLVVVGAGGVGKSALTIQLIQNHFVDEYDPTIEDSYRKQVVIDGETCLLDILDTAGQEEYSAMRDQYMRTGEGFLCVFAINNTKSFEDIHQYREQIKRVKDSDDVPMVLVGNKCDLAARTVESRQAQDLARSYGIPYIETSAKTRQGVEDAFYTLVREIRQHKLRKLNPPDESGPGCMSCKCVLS

Compound	Kd [3, 4] [nM]	Kd ([3]; SPR, Single Cycle Kinetics) [nM]	NRAS/KRAS (ratio of KD value for NRAS to KD value for KRAS) [1]	HRAS/KRAS (ratio of KD value for HRAS to KD value for KRAS) [2]	NRAS/KRAS (ratio of KD value with respect to GDP-bound NRAS wild-type protein to KD value with respect to KRAS) ([1]; SPR KD ratio NRAS/KRAS, class symbols)	HRAS/KRAS (ratio of KD value with respect to GDP-bound HRAS wild-type protein to KD value with respect to KRAS) ([2]; SPR KD ratio HRAS/KRAS, class symbols)	NRAS/KRAS (ratio of KD value with respect to NRAS to KD value with respect to KRAS) [1]	HRAS/KRAS (ratio of KD value with respect to HRAS to KD value with respect to KRAS) [2]
CCCN1C(=O)[C@@H]2CCN2C(=O)[C@H](C)N(C)C(=O)[C@H]([C@@H](C)CC)NC(=O)[C@H](CC(C)C)N(C)C(=O)C[C@@H](C(=O)N2CCN(C3COC3)CC2)N(C)C(=O)[C@H](C2CCCC2)N(C)C(=O)C2(CCCC2)NC(=O)[C@@H]2CCCN2C(=O)[C@H](CCc2ccc(C(F)(F)F)c(Cl)c2)NC(=O)CN(C)C(=O)[C@@H]1Cc1ccc(C(F)(F)F)cc1 [PP0184] ([NMeL]I[NMeA][Aze][NPrPhe(4-CF3)][Sar][hPhe(3-Cl-4-CF3)]P[Ac5c][NMeGly(cPent)][NMeD]-{Piperazinyl(4-(3-oxetanyl))}; lactam N-11)	0.32		C (A compound having a KD ratio of 0.1 or more and less than 3 is denoted as C)	B (a compound having 3 or more and less than 10 is denoted as B)				
CCCN1C(=O)[C@@H]2CCN2C(=O)[C@H](C)N(C)C(=O)[C@H]([C@@H](C)CC)NC(=O)[C@H](CC(C)C)N(C)C(=O)C[C@@H](C(=O)N2CCOCC2)N(C)C(=O)[C@H](C2CCCC2)N(C)C(=O)C2(CCCC2)NC(=O)[C@@H]2CCCN2C(=O)[C@H](CCc2ccc(C(F)(F)F)c(Cl)c2)NC(=O)CN(C)C(=O)[C@@H]1Cc1ccc(OC)cc1 [PP0134] ([NMeL]I[NMeA][Aze][X16][Sar][hPhe(3-Cl-4-CF3)]P[Ac5c][NMeGly(cPent)][NMeD]-Morpholide; lactam N-11)	0.66		C (A compound having a KD ratio of 0.1 or more and less than 3 is denoted as C)	B (a compound having 3 or more and less than 10 is denoted as B)				
CCO[C@@H]1C[C@H]2C(=O)NC3(CCC3)C(=O)N(C)[C@@H](C3CCCC3)C(=O)N(C)[C@H](C(=O)N3CCOCC3)CC(=O)N(C)[C@@H](CC3CC3)C(=O)N[C@@H]([C@@H](C)CC)C(=O)N(C)CC(=O)N(C)[C@H]3CCCCN(C3=O)[C@@H](Cc3ccc(C(F)(F)F)cc3)C(=O)N(C)CC(=O)N[C@@H](CCc3cc(F)c(C(F)(F)F)c(F)c3)C(=O)N2C1 [PP0712]	0.042						C (A compound having a KD ratio of 0.1 or more and less than 3 is denoted as C)	C (A compound having a KD ratio of 0.1 or more and less than 3 is denoted as C)

Further lines, with some results ahead:

Kd [3, 4] [nM]	Kd ([3]; SPR, Single Cycle Kinetics) [nM]	Compound	NRAS/KRAS (ratio of KD value for NRAS to KD value for KRAS) [1]	HRAS/KRAS (ratio of KD value for HRAS to KD value for KRAS) [2]	NRAS/KRAS (ratio of KD value with respect to GDP-bound NRAS wild-type protein to KD value with respect to KRAS) ([1]; SPR KD ratio NRAS/KRAS, class symbols)	HRAS/KRAS (ratio of KD value with respect to GDP-bound HRAS wild-type protein to KD value with respect to KRAS) ([2]; SPR KD ratio HRAS/KRAS, class symbols)	NRAS/KRAS (ratio of KD value with respect to NRAS to KD value with respect to KRAS) [1]	HRAS/KRAS (ratio of KD value with respect to HRAS to KD value with respect to KRAS) [2]
0.14		CCC[C@H]1C(=O)N[C@@H]([C@@H](C)CC)C(=O)N(C)CC(=O)N(C)[C@H]2C/C=C\CCN(C2=O)[C@@H](Cc2ccc(C)cc2)C(=O)N(C)CC(=O)N[C@@H](CCc2ccc(Cl)c(C(F)(F)F)c2)C(=O)N2C[C@H](OCC)C[C@H]2C(=O)NC2(CC(C)(C)C2)C(=O)N(C)[C@@H](C2CCCC2)C(=O)N(C)[C@H](C(=O)N(C)C)CC(=O)N1C [PP2786]			A (a compound having 10 or more and less than 20 is denoted as A)	A (a compound having 10 or more and less than 20 is denoted as A)		
	0.099	CCO[C@@H]1C[C@H]2C(=O)NC3(CCC3)C(=O)N(C)[C@@H](C3CCCC3)C(=O)N(C)[C@H](C(=O)N3CCOCC3)CC(=O)N(C)[C@@H](CC)C(=O)N[C@@H]([C@@H](C)CC)C(=O)N3CC[C@H]3C(=O)N(C)[C@H]3C[C@@H](C)CCN(C3=O)[C@@H](Cc3ccc(C(F)(F)F)cc3)C(=O)N(C)CC(=O)N[C@@H](CCc3cc(F)c(C(F)(F)F)c(F)c3)C(=O)N2C1 [PP1028]	B (a compound having 3 or more and less than 10 is denoted as B)	B (a compound having 3 or more and less than 10 is denoted as B)				
0.094		CCO[C@@H]1C[C@H]2C(=O)NC3(CCC3)C(=O)N(C)[C@@H](C3CCCC3)C(=O)N(C)[C@H](C(=O)N(C)C)CC(=O)N(C)[C@@H](C)C(=O)N[C@@H]([C@H](C)CC)C(=O)N(C)CC(=O)N(C)[C@H]3CCCCN(C3=O)[C@@H](Cc3ccc(C(F)(F)F)cc3)C(=O)N(C)CC(=O)N[C@@H](CCc3cc(F)c(C(F)(F)F)c(F)c3)C(=O)N2C1 [PP0730]					C (A compound having a KD ratio of 0.1 or more and less than 3 is denoted as C)	C (A compound having a KD ratio of 0.1 or more and less than 3 is denoted as C)
